Assay results as given in patent US20210386367A1, “DEVICES AND SYSTEMS FOR GASTROINTESTINAL MICROBIOME DETECTION AND MANIPULATION” (Progenity, Inc., priority 2018, published 2021).
Read-outs that look alike come from different tables or passages of the source.

Columns and labels:
E. coli ATCC 25922 = test: Broth microdilution MIC (time-kill study); assay type: cell-based, Escherichia coli; details: E. coli ATCC 25922
[1] = system: Streptococcus spp. spontaneous mutants; test: organism not typed; assay type: cell-based
Method in brief: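 Spontaneous mutants from drug selection plates were tested by CLSI broth microdilution in MHB II with two-fold serial drug dilutions. Inoculum was about 5×10^5 CFU/mL, incubated aerobically at 35° C. for 18-20 hr. MIC was the lowest concentration inhibiting visible growth.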

Klebsiella spp. = test: Broth microdilution MIC, 50 clinical isolates (20 K. oxytoca, 30 K. pneumoniae); assay type: cell-based
Method: Minimal inhibitory concentration (MIC) values were determined by broth microdilution or agar dilution in accordance with guidelines from the Clinical and Laboratory Standards Institute (CLSI; (1) “Methods for Dilution Antimicrobial Susceptibility Tests for Bacteria That Grow Aerobically; Approved Standard; 11th ed.” CLSI standard M07-A11, 2018; (2) “Performance Standards for Antimicrobial Susceptibility Testing; Twenty-Eighth Informational Supplement,” CLSI document M100-S28, 2018; and (3) “Methods for Antimicrobial Susceptibility Testing of Anaerobic Bacteria; Approved Standard—Eighth Edition,” CLSI document M11-A8, 2012).
Tested aerobically by broth microdilution: • Escherichia coli, n=50 • Klebsiella spp., n=50 • Pseudomonas aeruginosa, n=50 • Streptococcus spp., n=50 • Staphylococcus aureus, n=50 • Enterococcus faecalis, n=50 • Enterobacter aerogenes, n=50 • Proteus mirabilis, n=50
Broth microdilution testing of aerobic bacteria was conducted in cation-adjusted Mueller Hinton broth (MHBII). For testing streptococci, lysed horse blood (LHB) was added to MHBII broth at a final concentration of 3%. Where LHB was used, it was added after filtering.
Broth microdilution susceptibility testing in 96-well microplates was conducted in accordance with CLSI methods (1) and (2). Automated liquid handlers were used to conduct serial dilutions and liquid transfers, including the Multidrop 384 (Labsystems, Helsinki, Finland), Biomek 2000, and the Biomek FX (Beckman Coulter, Fullerton, Calif.). All wells in columns 2 through 12 of a standard 96-well microdilution plate (Costar 3795) were filled with 150 μL of the appropriate diluent. Then, 300 μL of the test agents were added to the wells of column 1 of the plates at 100× the highest final concentration to be tested. Serial two-fold dilutions were made across the rows through column 11 using the Biomek 2000. The wells of column 12 contained no drug and served as the growth control wells. This plate served as the “mother plate” from which MIC assay plates or “daughter plates” were made.
The daughter plates were loaded with 190 μL per well of the appropriate medium using the Multidrop 384. The daughter plates were created using the Biomek FX which transferred 2 μL of drug solution from each well of a mother plate to each corresponding well of the daughter plate in a single step. A standardized inoculum of each test organism was prepared per CLSI methods (1) to equal a 0.5 McFarland standard, followed by a dilution of 1:20 for aerobes and 1:10 for anaerobes. The plates were then inoculated with 10 μL of the diluted inoculum using the Biomek 2000 from low to high drug concentration, resulting in a final concentration of approximately 5×10^5 CFU/mL per well. An un-inoculated plate was incubated in parallel for each medium for the purpose of assessing solubility of the drug in the test media.
Inoculated plates were stacked 3 or 4 high, covered with a sterile lid on the top plate, placed into boxes with CO2 planchets (streptococci) or plastic bags (all other isolates). Plates were incubated at 35° C. for 16-24 hr in ambient air for aerobes or for 42-48 hr in the anaerobic environment of the Bactron II anaerobe chamber (Sheldon Manufacturing Co.; Cornelius, Oreg.). Following incubation, the microplates were removed from the incubator and viewed from the bottom using a plate viewer. The MIC values were read and recorded as the lowest concentration of drug that inhibited visible growth of the organism as per CLSI methods (1) and (2).

In the case of `CN[C@H](CC(C)C)C(=O)N[C@H]1C(=O)N[C@@H](CC(N)=O)C(=O)N[C@H]2C(=O)N[C@H]3C(=O)N[C@H](C(=O)N[C@H](C(=O)O)c4cc(O)cc(O)c4-c4cc3ccc4O)[C@H](O)c3ccc(c(Cl)c3)Oc3cc2cc(c3O[C@@H]2O[C@H](CO)[C@@H](O)[C@H](O)[C@H]2O[C@H]2C[C@](C)(N)[C@H](O)[C@H](C)O2)Oc2ccc(cc2Cl)[C@H]1O` [vancomycin, Vancomycin], the MIC (E. coli ATCC 25922; Escherichia coli, ATCC25922, read-out: MIC) is reported as greater than 16 µg/mL.
With Penicillin the MIC ([1]; S. agaloctiae ATCC 13813, selected on rifaximin 4X MIC, Colony A) was 0.015 µg/mL, the MIC ([1]; S. agaloctiae ATCC 13813, selected on rifaximin 4X MIC, Colony B) was 0.015 µg/mL and the MIC ([1]; S. agaloctiae ATCC 13813, selected on rifaximin 8X MIC, Colony A) was 0.015 µg/mL. It also gave an MIC ([1]; S. agaloctiae ATCC 13813, selected on rifaximin 8X MIC, Colony B) of 0.015 µg/mL, an MIC ([1]; S. agaloctiae ATCC 13813 Parent) of 0.015 µg/mL and an MIC ([1]; S. pneumoniae ATCC 49619, selected on rifaximin 4X MIC, Colony A) of 0.12 µg/mL. It also gave an MIC ([1]; S. pneumoniae ATCC 49619, selected on rifaximin 4X MIC, Colony B) of 0.25 µg/mL, an MIC ([1]; S. pneumoniae ATCC 49619, selected on rifaximin 8X MIC, Colony A) of 0.25 µg/mL and an MIC ([1]; S. pneumoniae ATCC 49619, selected on rifaximin 8X MIC, Colony B) of 0.25 µg/mL. The MIC ([1]; S. pneumoniae ATCC 49619 Parent) was 0.25 µg/mL, the MIC ([1]; S. pyogenes ATCC 49399, selected on rifaximin 4X MIC, Colony A) was 0.004 µg/mL and the MIC ([1]; S. pyogenes ATCC 49399, selected on rifaximin 4X MIC, Colony B) was 0.008 µg/mL. The MIC ([1]; S. pyogenes ATCC 49399, selected on rifaximin 8X MIC, Colony A) was 0.004 µg/mL, the MIC ([1]; S. pyogenes ATCC 49399, selected on rifaximin 8X MIC, Colony B) was 0.004 µg/mL and the MIC ([1]; S. pyogenes ATCC 49399 Parent) was 0.008 µg/mL.
With “piperacillin/tazobactam [piperacillin-tazobactam]” the “% I” value (Klebsiella spp.) was 2%, the “% R” value (Klebsiella spp.) was 24% and the “% S” value (Klebsiella spp.) was 74%. The MIC50 (Klebsiella spp.) was 4 µg/mL, the MIC90 (Klebsiella spp.) was greater than 128 µg/mL and the Mode (Klebsiella spp.) was 2 µg/mL. For the same compound, the “Cumulative percentage of isolates at MIC” value (Klebsiella spp.; 0.5 μg/mL) was 4.0%, the “Number of test isolates at MIC” value (Klebsiella spp.; 0.5 μg/mL) was 2 and the “Cumulative percentage of isolates at MIC” value (Klebsiella spp.; 1 μg/mL) was 14.0%. For the same compound, the “Number of test isolates at MIC” value (Klebsiella spp.; 1 μg/mL) was 5, the “Cumulative percentage of isolates at MIC” value (Klebsiella spp.; 2 μg/mL) was 48.0% and the “Number of test isolates at MIC” value (Klebsiella spp.; 2 μg/mL) was 17. The “Cumulative percentage of isolates at MIC” value (Klebsiella spp.; 4 μg/mL) was 58.0%, the “Number of test isolates at MIC” value (Klebsiella spp.; 4 μg/mL) was 5 and the “Cumulative percentage of isolates at MIC” value (Klebsiella spp.; 8 μg/mL) was 68.0%. For the same compound, the “Number of test isolates at MIC” value (Klebsiella spp.; 8 μg/mL) was 5, the “Cumulative percentage of isolates at MIC” value (Klebsiella spp.; 16 μg/mL) was 74.0% and the “Number of test isolates at MIC” value (Klebsiella spp.; 16 μg/mL) was 3. For the same compound, the “Cumulative percentage of isolates at MIC” value (Klebsiella spp.; 64 μg/mL) was 76.0%, the “Number of test isolates at MIC” value (Klebsiella spp.; 64 μg/mL) was 1 and the “Cumulative percentage of isolates at MIC” value (Klebsiella spp.; 128 μg/mL) was 78.0%. For the same compound, the “Number of test isolates at MIC” value (Klebsiella spp.; 128 μg/mL) was 1, the “Cumulative percentage of isolates at MIC” value (Klebsiella spp.; >128 μg/mL) was 100.0% and the “Number of test isolates at MIC” value (Klebsiella spp.; >128 μg/mL) was 11. For the same compound, the MIC (E. coli ATCC 25922) was 4/4.
